Measured values taken from ChEMBL document CHEMBL1123297, “9-(2-Fluorobenzyl)-6-(methylamino)-9H-purine hydrochloride. Synthesis and anticonvulsant activity” (J Med Chem, 1986).

How the values were obtained:
Mus musculus [1] = assay: Concentration required to protect 50 % of mice against hind limb extensor component in MES test when administered intravenously; format: functional; conditions: Hindlimb, iv
Rattus norvegicus [2] = assay: Compound was evaluated for the anticonvulsant activity by testing its ability to protect against maximal electroshock- induced seizures in rats; Intraperitoneal administration (ip); format: functional
[3] = (§1) Compound was evaluated for the anticonvulsant activity in rats.; format: organism-based; conditions: rat, in vivo
Rattus norvegicus [4] = organism: Rattus norvegicus; assay: as §1; format: organism-based; conditions: in vivo
Mus musculus [5] = assay: Concentration required to protect 50 % of mice against hind limb extensor component in MES test when administered perorally; format: functional; conditions: Hindlimb, po
Rattus norvegicus [6] = assay: Compound was evaluated for the anticonvulsant activity by testing its ability to protect against maximal electroshock- induced seizures in rats after peroral administration (po); format: functional
Mus musculus [7] = assay: Concentration required to protect 50 % of mice against hind limb extensor component in MES test when administered intraperitoneally; format: functional; conditions: Hindlimb, ip
Rattus norvegicus [8] = assay: Compound was evaluated for the anticonvulsant activity by testing its ability to protect against maximal electroshock- induced seizures in rats; Intravenous administration (iv); format: functional
Rattus norvegicus [9] = assay: Compound was evaluated for the anticonvulsant activity by testing its ability to protect against maximal electroshock- induced seizures in rats; Peroral administration (po); format: functional

SMILES | ED50 (Mus musculus [1]) [mg/kg] | ED50 (Rattus norvegicus [2]) [mg/kg] | LD50 [3] [mg/kg] | LD50 (Rattus norvegicus [4]) [mg/kg] | ED50 (Mus musculus [5]) [mg/kg] | ED50 (Rattus norvegicus [6]) [mg/kg] | ED50 (Mus musculus [7]) [mg/kg] | ED50 (Rattus norvegicus [8]) [mg/kg] | ED50 (Rattus norvegicus [9]) [mg/kg]
CNc1ncnc2c1ncn2Cc1ccccc1F [BW-A78U] | 4 | 1.7 | > 1000 | > 500 | 14 | 2.5 | 5 | 0.2 | 
O=C1NC(=O)C(c2ccccc2)(c2ccccc2)N1 [PHENYTOIN] | 1.8 | 10 |  |  | 22 |  | 9 | 4 | 20
